Consider 4 molecules from patent publication US20240293466A1, “DIFFERENTIAL CXCR4 […] HEMATOPOIETIC PROGENITOR CELLS VERSUS STEM CELLS DIRECTS HOMING AND LONG-TERM ENGRAFTMENT” (priority 2021, published 2024).

Test [1] deals with MPB CD34+ HSPC / CD34+CD38- cells. The test can be described thus: Gene transfer efficiency of LV vectors in HSPC. It counts as cell-based, human. The method, then: UCB and G-CSF MPB were obtained and CD34+HSPC were isolated by magnetic selection with Indirect CD34 Microbead kit, human (Miltenyi, 130-046-701). CD34+purity was >95% as confirmed by flow cytometry. CD34+CD38−cells were isolated from G-CSF MPB by magnetic selection with CD34+CD38−Isolation Kit, human (Miltenyi, 130-114-822) and cryopreserved. Thawed CD34+ or CD34+CD38−cells were cultured in X-VIVO 10 (Lonza BE02-055Q) or SCGM (CellGenix 20806-0500) supplemented with 2% human serum albumin, 100 ng/mL TPO, 300 ng/mL SCF, and 300 ng/mL FLT3-L (all cytokines purchased from Peprotech) at a cell density of 2-5×10^6 CD34+cells/mL. Media was supplemented with Birb 796 (600 nM) (Selleckchem) throughout culture and Prostaglandin E2 (10 μM) (Cayman) at plating, transduction, and 1 hour before harvest. Cells were transduced with a lentiviral vector in culture for 36-42 hours where indicated. CD34+HSPC were transduced at a final concentration of 5×10^7-1×10^8 IU/mL. Following culture, CD34+HSPC were harvested and washed with PBS, resuspended in PBS, and used in in vivo or in vitro experiments, as described below.

Test [2] deals with CD34+CD38- HSC-enriched cells. The test can be described thus: Long-term (24 week) engraftment of transduced CD34+CD38- cells in NSG mice. It counts as in vivo, human. The note with it: 24 weeks. From the text:
(§1) Mice were irradiated with 280 cGy prior to transplant.
At 12 weeks following transplant, bone marrow was harvested via aspirate of the femur for in vivo engraftment analysis. For animals that received IBM injections into one femur, the non-injected alternate femur was aspirated. For 24 week and homing analysis, mice were sacrificed, and bone marrow was harvested from both the rear and forelimbs. Cells were stained fresh with the following antibodies: PerCP anti-human CD45 (BioLegend 304026), Anti-human CD33 PE-Cy7 (eBioscience 25-0338-42), APC-Cy7 Mouse Anti-Human CD19 (BD 557791), Anti-Human CD3 PE (BD BioSciences 555340), and APC Mouse Anti-Human CD34 (BD BioScience 555824). Red bloods cells were lysed after staining using red blood cell lysis buffer.
Next, CD34+CD38−HSC-enriched cells were sorted, transduced with GFP LV^CXCR4 vector or GFP LV control vector, and transplanted them IV or IBM in two limiting dilutions to irradiated NSG mice to assess engraftment of the long-term repopulating HSC at 6 months post-transplant (FIG. 5F-5G). […] The slightly higher engraftment of untransduced IV transplanted cells (FIGS. 5F and 10C) was likely because LV preparations often contain some defective viral particles, which, like VLP, would deliver CXCR4 protein but not result in an effective transduction (transgene transfer or GFP+cells). […]

Test [3] deals with CD34+CD38- HSC-enriched cells. The test can be described thus: CXCR4 expression (flow cytometry MFI) on sorted transduced cells at time of transplant. In kind it is cell-based, human. Particulars: CD34+CD38-BFP+ cells, 72 hours after gene transfer. From the text:
All LV vectors were packaged using the Gag-Pol, Rev and VSV-G envelope plasmids. All vectors were under the control of the MNDU3 promoter. The GFP LV construct was pRRL.SIN.cPPT.MNDU3.eGFP.WPRE. The BFP LV construct was designed by replacing the GFP cDNA in pRRL.SIN.cPPT.MNDU3.eGFP.WPRE.with mTag2BFP. The BFP-CXCR4 LV was pRRL.SIN.cPPT.MNDU3.mTag2BFP-CXCR4.WPRE. All lentiviral vectors were packaged in HEK 293T (ATCC) cells and vector titers determined in the murine erythroleukemia (MEL) (ATCC) cells as previously described (Perumbeti et al., Blood, 2009; Urbinati et al., Mol Ther, 2009; Arumugam et al., Mol Ther, 2009). […]
An alternative explanation for the competitive homing and engraftment advantage of HPC could be that they comprise the vast majority of CD34+HSPC (98-99%), while HSC are a small minority. It was experimentally conferred the HSC-enriched CD34+CD38− population with slightly higher CXCR4 expression than the CD34+CD38+HPC and assessed homing (FIG. 3D). […] CXCR4 expression on these populations was assessed before transplant. […] The sorted BFP-HPC population was then mixed with the BFP+CD34+CD38−CXCR4^high HSC-enriched cell population in ratios seen in CD34+HSPC prior to sorting, and transplanted them either IV or IBM, and homing of the CD34+CD38−BFP+CXCR4^high HSC-enriched cells was assessed. […]
On the technique in general: A flow cytometer gives signals particle by particle.

Test [4] deals with CD34+CD38- HSC-enriched cells. In words: Homing of CD34+CD38-BFP+ cells mixed with CD34+CD38+ HPC in NSG mice. In kind it is in vivo, human. Particulars: 20-22 hours.
Excerpt: as §1
An alternative explanation for the competitive homing and engraftment advantage of HPC could be that they comprise the vast majority of CD34+HSPC (98-99%), while HSC are a small minority. It was experimentally conferred the HSC-enriched CD34+CD38− population with slightly higher CXCR4 expression than the CD34+CD38+HPC and assessed homing (FIG. 3D). The CD34+HSPC were transduced with a BFP-CXCR4-encoding LV vector or a BFP-encoding LV control vector and CD34+CD38−BFP+HSC-enriched cells were sorted along with untransduced CD34+CD38+BFP−HPC. CXCR4 expression on these populations was assessed before transplant. In control cells, CXCR4 expression on the more primitive CD34+CD38−cells was much lower (MFI 16,930) than on CD34+CD38+HPC (MFI 35,098) (FIG. 3E), consistent with prior data (see, e.g., FIG. 2D). […] The sorted BFP-HPC population was then mixed with the BFP+CD34+CD38−CXCR4^high HSC-enriched cell population in ratios seen in CD34+HSPC prior to sorting, and transplanted them either IV or IBM, and homing of the CD34+CD38−BFP+CXCR4^high HSC-enriched cells was assessed. Control CD34+CD38−BFP+cells were also mixed with CD34+CD38+BFP−HPC and transplanted IV or IBM (FIG. 3D) and their homing into bone marrow was assessed. […]

The target of another test is T1, VLA-4 (Homo sapiens, UniProt P05556+P13612).
T1 construct: endogenous in cells; host or cells: human G-CSF mobilized peripheral blood CD34+CD38+BFP+ HPC, sorted after transduction with a BFP-only LV vector
In words: Homing of CD34+CD38+ HPC into bone marrow of NSG mice after VLA-4 blockade. Particulars: IV or IBM delivery; HPC pre-treated with 1 μM BIO5192. In kind it is in vivo. The method, then:
as §1
CD34+HSPC were resuspended in PBS containing 1 μM BIO5192 (Tocris, 5051) and incubated on ice for 20 minutes.

The next test deals with CXCR4 (Homo sapiens, UniProt P61073).
CXCR4, sequence (P61073 whole entry): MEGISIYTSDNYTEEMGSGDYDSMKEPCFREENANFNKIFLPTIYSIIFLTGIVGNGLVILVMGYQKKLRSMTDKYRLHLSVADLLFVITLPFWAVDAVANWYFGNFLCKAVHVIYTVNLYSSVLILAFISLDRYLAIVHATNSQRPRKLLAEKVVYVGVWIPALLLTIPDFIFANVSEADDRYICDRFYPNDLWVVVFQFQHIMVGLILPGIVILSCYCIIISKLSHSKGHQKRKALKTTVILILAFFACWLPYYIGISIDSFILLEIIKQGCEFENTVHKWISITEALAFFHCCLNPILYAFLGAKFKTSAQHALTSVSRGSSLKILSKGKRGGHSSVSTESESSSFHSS

T1 sequence (P13612 34-1032): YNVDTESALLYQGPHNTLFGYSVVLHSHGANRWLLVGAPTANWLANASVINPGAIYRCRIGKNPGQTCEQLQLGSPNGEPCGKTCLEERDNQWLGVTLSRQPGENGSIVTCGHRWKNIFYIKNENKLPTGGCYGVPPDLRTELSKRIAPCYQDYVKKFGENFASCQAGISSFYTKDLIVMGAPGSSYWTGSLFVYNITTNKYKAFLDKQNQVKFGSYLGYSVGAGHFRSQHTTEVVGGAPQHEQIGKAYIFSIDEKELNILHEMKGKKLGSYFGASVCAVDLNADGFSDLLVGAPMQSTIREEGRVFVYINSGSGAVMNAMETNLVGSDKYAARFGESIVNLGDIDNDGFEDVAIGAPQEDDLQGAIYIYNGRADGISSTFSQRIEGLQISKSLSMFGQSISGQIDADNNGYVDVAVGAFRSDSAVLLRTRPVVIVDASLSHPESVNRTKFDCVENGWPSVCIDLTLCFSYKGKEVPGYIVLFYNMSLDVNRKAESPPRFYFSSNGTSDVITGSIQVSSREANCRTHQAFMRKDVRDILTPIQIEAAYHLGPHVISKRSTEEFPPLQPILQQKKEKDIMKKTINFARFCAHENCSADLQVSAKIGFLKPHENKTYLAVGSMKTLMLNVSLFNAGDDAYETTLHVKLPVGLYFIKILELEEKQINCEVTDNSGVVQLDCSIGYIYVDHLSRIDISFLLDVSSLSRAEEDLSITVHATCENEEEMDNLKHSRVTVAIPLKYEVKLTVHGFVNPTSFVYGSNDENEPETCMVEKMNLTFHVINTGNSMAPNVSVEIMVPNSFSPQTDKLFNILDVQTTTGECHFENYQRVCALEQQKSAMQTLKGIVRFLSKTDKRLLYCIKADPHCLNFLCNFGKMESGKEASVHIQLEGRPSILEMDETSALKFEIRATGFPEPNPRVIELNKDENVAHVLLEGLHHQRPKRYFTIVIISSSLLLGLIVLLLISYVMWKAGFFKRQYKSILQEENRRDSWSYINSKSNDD
T1 sequence (P05556 21-798): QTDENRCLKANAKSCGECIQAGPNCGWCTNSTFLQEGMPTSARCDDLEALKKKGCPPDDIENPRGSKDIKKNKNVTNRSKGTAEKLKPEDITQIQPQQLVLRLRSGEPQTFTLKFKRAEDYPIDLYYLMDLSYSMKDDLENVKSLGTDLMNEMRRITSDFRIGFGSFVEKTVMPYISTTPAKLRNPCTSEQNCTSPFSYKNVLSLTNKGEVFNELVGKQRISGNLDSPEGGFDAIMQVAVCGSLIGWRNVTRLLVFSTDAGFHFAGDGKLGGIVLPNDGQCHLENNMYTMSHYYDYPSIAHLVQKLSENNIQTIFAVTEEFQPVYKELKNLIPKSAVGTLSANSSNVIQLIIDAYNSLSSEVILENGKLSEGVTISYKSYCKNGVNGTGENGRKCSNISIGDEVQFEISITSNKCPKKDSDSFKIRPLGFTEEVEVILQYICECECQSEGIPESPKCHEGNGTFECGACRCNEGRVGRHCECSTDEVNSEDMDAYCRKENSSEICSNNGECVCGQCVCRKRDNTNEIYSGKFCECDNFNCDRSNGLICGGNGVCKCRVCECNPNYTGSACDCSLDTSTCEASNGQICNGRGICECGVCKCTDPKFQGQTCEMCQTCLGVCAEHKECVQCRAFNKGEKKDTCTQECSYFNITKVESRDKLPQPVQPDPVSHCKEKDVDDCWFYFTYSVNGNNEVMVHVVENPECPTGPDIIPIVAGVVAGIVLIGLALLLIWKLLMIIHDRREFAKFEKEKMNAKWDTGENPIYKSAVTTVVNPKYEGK

In turn, pRRL.SIN.cPPT.MNDU3.eGFP.WPRE [GFP LV] displayed a gene transfer efficiency in test [1] (CD34+CD38- HSC-enriched cells, experiment of FIG. 4) of 69%. For the same molecule, the gene transfer in test [1] (CD34+CD38- cells, homing/engraftment experiment of FIGS. 5 and 10) is 60%; in test [1] (MPB CD34+HSPC, experiment of FIG. 1), 63-66%. Moreover, the lineage repopulation result in test [2] is listed as “full multilineage repopulation”.
On to “pRRL.SIN.cPPT.MNDU3.mTag2BFP-CXCR4.WPRE [BFP-CXCR4 LV vector]”, for which, in test [3], the “CXCR4 expression MFI” value is given as 37,453. Also, the “homing of CD34+CD38- cells to bone marrow” value is on record as “higher homing levels” in test [4] (IV administration, mixed with majority of CD34+38+ HPC) and “remarkably improved homing advantage” in test [4] (direct IBM transplantation, mixed with majority of HPC).
Take `Cc1ccccc1NC(=O)Nc1ccc(CC(=O)N(C)[C@@H](CC(C)C)C(=O)NCC[C@H](NC(=O)[C@@H]2CCCN2S(=O)(=O)c2cc(Cl)cc(Cl)c2)C(=O)O)cc1` [BIO5192]: on VLA-4, the “CD34+38+ HPC homing pattern vs corresponding controls” value was “did not alter”.
As to `c1cc(CN2CCCNCCNCCCNCC2)ccc1CN1CCCNCCNCCCNCC1` [AMD3100], the “human HPC content in the injected femur (IF)” value on CXCR4 (IBM delivery, CD34+CD38+BFP+ HPC pre-treated with 100 ug/mL AMD3100, reduced to homing levels of IV delivery or nonIF) is “significantly reduced”. Also, the “homing of IV injected cells” value on CXCR4 (IV delivery, HPC pre-treated with AMD3100) is listed as “note blocked”.
